In US20230241243A1, “CARRIER PARTICLE-DRUG CONJUGATES, SELF-IMMOLATIVE LINKERS, AND USES THEREOF” (priority 2020, published 2023):

Columns and labels:
[1] = test system: SKOV-3 cell line; assay: In vitro cell viability assay of FA-CDCs (CellTiter-Glo2.0); assay type: cell-based; settings: FA ligands per particle 12-22; linker-drug conjugates per particle 17-25; read-out: IC50 inSKOV-3 cell line (+++)
Protocol: (§1) The in vitro cytotoxicity of the NDCs disclosed herein were tested in cancer cells. The cancer cells were cultured in folic acid-free medium (RPMI1640, ThermoFisher, GIBCO) for at least one week before the study. Cells were plated in opaque 96-well plates at a density of 3×10^3 cells per well (total of […]) and allowed to attach overnight. The following day, cells were treated with NDC (FA-CDC) prepared using the linker-payload conjugate precursor compound 202 (Example 33), at a concentration range of 0-50 nM (0, 0.001, 0.005, 0.01, 0.05, 0.1, 0.5, 1, 5, 10, 50 nM) by adding […] of 10x stock FA-CDC Solution.
(§2) Cells were treated for a pre-defined exposure time (depending on the study design, e.g., 4-6 hours, or 7 days). In the case of short-exposure-time viability study, cancer cells in each wells were washed with […] PBS and refreshed with […] of cell medium. After washing, the plates were returned back to 37° C. incubator for 7 days before the viability assay. In the case of 7-day-exposure-time viability study, no additional washing step was performed. After 7 days, the cell viability was assessed using the CellTiter-Glo2.0 assay (Promega) according to manufacturer's instructions. Data for both viability and proliferation were plotted using Prism7 software (GraphPad). Representative cell viability results of six FA-CDCs with similar surface density of Folic Acid targeting ligands and drug linkers is presented in provided in Table 4.

[2] = Drug-release assay of nanoparticle-conjugated linker-payloads under cleavage conditions (Cat-B, redox-responsive or pH-sensitive cleaving study), RP-HPLC; assay type: in vitro ADME; settings: linker-payload conjugated to DBCO-functionalized silica nanoparticle, 37° C., 24 hours
Procedure, shortened: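 Azide linker-drugs were click-conjugated to DBCO-functionalized ultrasmall silica nanoparticles and incubated under cleavage conditions, e.g., Cat-B in 25 mM MES, 5 mM DTT, pH 5.0. Released versus non-released drug was quantified by C18 RP-HPLC peak area. Gradients were 0.01% TFA water/acetonitrile for protease/redox linkers and water/acetonitrile for pH-sensitive linkers.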

[3] = test system: KB cell line; settings: read-out: IC50 in KB cell line (++++); FA ligands per particle 12-22; linker-drug conjugates per particle 17-25
Protocol: as §1
as §2, with “(GraphPad).” for “(GraphPad). Representative cell viability results of six FA-CDCs with similar surface density of Folic Acid targeting ligands and drug linkers is presented in provided in Table 4.”

Structure (SMILES) | IC50 [1] [nM] | % of Payload Release in 24 Hours Under Cleavage Conditions [2] | IC50 [3] [nM]
CCc1c2c(nc3ccc(OCC(=O)N/N=C(\C)c4cccc(OCCOCCOCCOCCOCCOCCN=[N+]=[N-])c4)cc13)-c1cc3c(c(=O)n1C2)COC(=O)[C@]3(O)CC [Example 70, (S,E)-N′-(1-(3-((17-azido-3,6,9,12,15-pentaoxaheptadecyl)oxy)phenyl)ethylidene)-2-((4,11-diethyl-4-hydroxy-3,14-dioxo-3,4,12,14-tetrahydro-1H-pyrano[3′,4′:6,7]indolizino[1,2-b]quinolin-9-yl)oxy)acetohydrazide] | 17.9 | – | –
CC[C@@]1(O)C(=O)OCc2c1cc1n(c2=O)Cc2c-1nc1cc(F)c(C)c3c1c2[C@@H](NC(=O)OCc1ccc(NC(=O)[C@H](CCCCN)NC(=O)[C@H](Cc2ccccc2)NC(=O)CCOCCOCCOCCOCCOCCOCCOCCOCCOCCN=[N+]=[N-])cc1)CC3 (single isomer, unassigned) [Example 25] | 0.4 | +++ (‘+++’ indicates 51-75% release) | –
CC[C@@]1(O)C(=O)OCc2c1cc1n(c2=O)Cc2c-1nc1cc(F)c(C)c3c1c2[C@@H](NC(=O)OCc1ccc(SSC(C)(C)CNC(=O)CCOCCOCCOCCOCCOCCOCCOCCOCCOCCN=[N+]=[N-])cc1)CC3 [Example 58, 4-((1-azido-33-methyl-30-oxo-3,6,9,12,15,18,21,24,27-nonaoxa-31-azatetratriacontan-33-yl)disulfanyl)benzyl ((1S,9S)-9-ethyl-5-fluoro-9-hydroxy-4-methyl-10,13-dioxo-2,3,9,10,13,15-hexahydro-1H,12H-benzo[de]pyrano[3′,4′:6,7]indolizino[1,2-b]quinolin-1-yl)carbamate] | – | ++++ (‘++++’ indicates 76-100% release) | 49.4
CC[C@@]1(O)C(=O)OCc2c1cc1n(c2=O)Cc2c-1nc1cc(F)c(C)c3c1c2[C@@H](NC(=O)OCc1ccc(NC(=O)[C@H](CCCNC(N)=O)NC(=O)[C@@H](NC(=O)CCOCCOCCOCCOCCOCCOCCOCCOCCOCCN=[N+]=[N-])C(C)C)cc1)CC3 [Example 10, 4-((32S,35S)-1-azido-32-isopropyl-30,33-dioxo-35-(3-ureidopropyl)-3,6,9,12,15,18,21,24,27-nonaoxa-31,34-diazahexatriacontan-36-amido)benzyl-((1S,9S)-9-ethyl-5-fluoro-9-hydroxy-4-methyl-10,13-dioxo-2,3,9,10,13,15-hexahydro-1H,12H-benzo-[de]-pyrano-[3′,4′:6,7]-indolizino-[1,2-b]-quinolin-1-yl)-carbamate] | 10.7 | +++ (‘+++’ indicates 51-75% release) | –
CC[C@@]1(O)C(=O)OCc2c1cc1n(c2=O)Cc2c-1nc1cc(F)c(C)c3c1c2[C@@H](NC(=O)C(O)c1ccc(NC(=O)[C@H](CCCNC(N)=O)NC(=O)[C@@H](NC(=O)CCOCCOCCOCCOCCOCCOCCN=[N+]=[N-])C(C)C)cc1)CC3 (stereo partly drawn) [Example 18, 1-azido-N-((2S)-1-(((2S)-1-((4-(2-(((1S,9S)-9-ethyl-5-fluoro-9-hydroxy-4-methyl-10,13-dioxo-2,3,9,10,13,15-hexahydro-1H,12H-benzo[de]pyrano[3′,4′:6,7]indolizino[1,2-b]quinolin-1-yl)amino)-1-hydroxy-2-oxoethyl)phenyl)amino)-1-oxo-5-ureidopentan-2-yl)amino)-3-methyl-1-oxobutan-2-yl)-3,6,9,12,15,18-hexaoxahenicosan-21-amide] | – | +++ (‘+++’ indicates 51-75% release) | 17.5
